Measurements from patent US9018000B2, “Voltage gated calcium channel β-subunit anchoring regulator protein and uses thereof” (Agency for Science, Technology and Research, priority 2007, dated 2015).

Assays:
β3/AID complex = target: T1, β3/AID complex (Rattus norvegicus, UniProt P54287); test: dissociation of β3-subunits from GST-AID by competitive peptides; assay type: binding; settings: peptide 30, 60, 300, 600 nM, four hours, Western blot of supernatant
T1 construct: expressed in transfected cells; host or cells: COS-1 (β3 lysate)
T1 sequence (P54287 whole entry, one chain of several): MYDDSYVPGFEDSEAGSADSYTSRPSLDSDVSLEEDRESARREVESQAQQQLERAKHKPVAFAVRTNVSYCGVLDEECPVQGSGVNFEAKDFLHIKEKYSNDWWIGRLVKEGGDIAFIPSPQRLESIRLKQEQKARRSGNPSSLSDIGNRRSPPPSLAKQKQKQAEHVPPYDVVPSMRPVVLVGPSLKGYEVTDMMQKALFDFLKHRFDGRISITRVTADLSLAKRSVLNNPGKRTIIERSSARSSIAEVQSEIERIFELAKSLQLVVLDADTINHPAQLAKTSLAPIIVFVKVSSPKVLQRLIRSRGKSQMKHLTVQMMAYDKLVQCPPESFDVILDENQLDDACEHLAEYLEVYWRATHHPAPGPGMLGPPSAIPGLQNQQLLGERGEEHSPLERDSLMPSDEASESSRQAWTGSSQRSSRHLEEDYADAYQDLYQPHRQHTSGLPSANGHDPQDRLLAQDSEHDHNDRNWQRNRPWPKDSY
Excerpt: A, Cell surface expression of HA-epitope tagged Cav1.2 and N-Myc BARP in the presence or absence of Cavβ-subunits. Intact cells expressing Cav1.2, BARP and Cavβ-subunits were immunostained with HA and Myc antibodies. Cav 1.2 AID (X) is a mutant deficient in the β-interacting domain. BARP (db) is a mutant deficient in domain I and II, BARP (LW), or BARP (LFFL), mutants are deficient in domain I and II, respectively. Non-permeabilized TsA201 cells co-expressing wt or mutated HA-Cav1.2, wt or mutated Myc-BARP and the Cavβ-subunits were immunostained with antibodies to HA (green) and Myc (red). Cav 1.2 AID (X) and BARP (db) are mutants defective in Cavβ-subunit binding. […] In vivo expressed Cavβ3-subunits were pulled-down using a GST-AID fusion protein and the complex then incubated with increasing amounts of AID or BARP Domain I peptide. The Cavβ3-subunit displaced from the GST-AID was monitored by Western blot. […] Effects of wt or mutated BARP on the I-V relationship of Ca^2+-channels are shown. […]
To verify if the AID-like domain of BARP dissociates β-subunits from the AID of α1-subunits, COS-1 cells lysate expressing β3 subunits was incubated with GST-AID fusion protein to form a β3/AID complex and subsequently, the dissociation of β3 subunits was monitored after addition of an increasing amount of competitive AID or AID-like BARP peptide (FIG. 4D).

β-subunits = test: co-immunoprecipitation / co-precipitation of BARP with β-subunits; assay type: binding
Procedure: To verify that BARP binds to the β-subunits in mammalian cells, co-immunoprecipitation experiments were carried out in COS-1 cells. […] To confirm this association in vivo, we determined the subcellular localization of the β-subunits in the presence of BARP in transfected PC12 and COS-1 cells.
To examine that domain I is indeed a AID-like region, we first mutated the known amino acids in the β-subunit hydrophobic groove responsible for AID interaction, and tested these mutants for association with either AID or BARP domain I by co-precipitation studies. In comparison with the AID domain that only required M196 as a crucial interacting site, almost all amino acid substitutions in the hydrophobic groove of β-subunits interfered with BARP domain I interaction (FIG. 2Cb).
Next, we determined if additional binding sites in BARP are present for β-subunit association. With the use of truncated form of the protein, in which the domain I was abolished, and co-precipitation experiments, we identified a second domain (Dom. II) downstream to the first one (FIG. 2Da).
To further confirm that both domains associate to the β-subunit in the context of full-length BARP, domain I and II were mutated to abolish their respective interaction. […]

[1] = cited from earlier work

Question: Which “dissociation of β3-subunit from GST-AID” value (β3/AID complex) does the source give for “SYRDLWSLRASLELHAATASD [BARP Domain I peptide]” here?
Answer: displaces the Cavβ3-subunit from the AID

Question: Which “association with β-subunit isoforms” value (β-subunits) does the source give for “Isolated BARP domain I: isolated AID-like β-interacting domain I of BARP, expressed as GST fusion” here?
Answer: able to associate with all known) β-subunit isoforms

Question: For `COC(=O)C1=C(C)NC(C)=C([N+](=O)[O-])C1c1ccccc1C(F)(F)F` (stereo not shown) [BayK 8644], which “side effects in vivo” value [1] is on record?
Answer: severe side effects such as dystonic neurobehavioural syndrome, hypertension and arrhythmia

Question: With “isolated domain II: isolated second β-interacting domain of BARP (SEQ ID NO:8) (PRAWPRRPRRDYSIDEKTDALFHEFLRHDPHFDDAPRHR)” as the compound, how does the “association with β-subunit isoforms” value (β-subunits) read?
Answer: interacted with β2, β3 and β4, but not with β1 isoforms
